# US20250339399A1, “SUPRAMOLECULAR SELF-ASSEMBLY SYSTEM” (Beijing Creatron Institute of Pharmaceutical Research Co., …, priority 2022, published 2025)
# Assays:
# [1] = Guest molecule concentration after incubation in initial medium without polymer (Comparative Example 1); assay type: physicochemical; settings: 37° C.
# Method: pH 2.0 hydrochloric acid, pH 4.5 acetate, and pH 6.5, pH 6.8, or pH 7.4 phosphate buffer solutions were prepared. The selection of each initial medium followed the principle that the solubility in the initial medium of the selected targets (or active ingredients) should low enough, but should meet the detection sensitivity and accuracy requirements of the corresponding analytical methods. Each buffer as initial media was placed in a 50 ml test tube with a stopper, shaken in a constant temperature air shaker at 37° C.±0.5° C., with an amplitude of 200 rpm, and incubated for 1 hour. […] Samples were taken at 0.5 h, 3 h and 6 h after incubation, centrifuged at 37° C., 13000 rpm for 5 minutes, and the supernatant was diluted at least 10 times with the mobile phase under the target analyte analytical method, filtered, the initial filtrate was discarded, and the continued filtrate was used as the test solution for injection analysis. The corresponding HPLC method under each target object item in Table 8 was used to determine the content of each target substance. When the solubility of the target in the initial medium is below the quantitative limit of the analytical method, a small amount of surfactant, such as sodium dodecyl sulfate (SDS), Tween20, or Tween80, can be added appropriately.
# The above targets were incubated at 37° C.±0.5° C. for different time in an initial medium without any polymer. Each solid target formed by molecular stacking was removed by centrifugation, and the supernatant was analyzed using the HPLC method under each target item (see Table 8). The theoretical addition concentration of each target when its supramolecular self-assembly system was built was determined by its maximum dose in clinical use.
# [2] = cited from earlier work
# [3] = Binary supramolecular self-assembly systems of polymer and target: guest concentration over incubation time (Comparative Example 2); assay type: physicochemical
# Method: Experiments were conducted according to the steps in Comparative Example 1, and quantitative analysis was carried out using the analytical method for each target to investigate the regulation ability […] stacking.
# [4] = binary system with 0.5% polymer 102, incubation 0.5 h
# [5] = binary system with 0.5% polymer 102, incubation 3 h
# [6] = binary system with 0.5% polymer 102, incubation 6 h
# [7] = binary system with 0.5% polymer 101, incubation 0.5 h
# [8] = binary system with 0.5% polymer 101, incubation 3 h
# [9] = binary system with 0.5% polymer 101, incubation 6 h
# [10] = binary system with 0.5% polymer 103, incubation 0.5 h
# [11] = binary system with 0.5% polymer 103, incubation 3 h
# [12] = binary system with 0.5% polymer 103, incubation 6 h
# [13] = binary system with 0.5% polymer 107, incubation 0.5 h
# [14] = binary system with 0.5% polymer 107, incubation 3 h
# [15] = binary system with 0.5% polymer 107, incubation 6 h
# [16] = binary system with 0.5% polymer 106, incubation 0.5 h
# [17] = binary system with 0.5% polymer 106, incubation 3 h
# [18] = binary system with 0.5% polymer 106, incubation 6 h
# [19] = binary system with 0.5% polymer 110, incubation 0.5 h
# [20] = binary system with 0.5% polymer 110, incubation 3 h
# [21] = binary system with 0.5% polymer 110, incubation 6 h
SMILES,"Concentration of guest molecule measured after different incubated time ([1]; 0.5 h, pH 6.8 phosphate buffer) [µg/mL]","Concentration of guest molecule measured after different incubated time ([1]; 3 h, pH 6.8 phosphate buffer) [µg/mL]","Concentration of guest molecule measured after different incubated time ([1]; 6 h, pH 6.8 phosphate buffer) [µg/mL]",LogD7.4 or Log P [2],"Concentration of the target in the solution measured after different incubation time [3, 4] [µg/mL]","Concentration of the target in the solution measured after different incubation time [3, 5] [µg/mL]","Concentration of the target in the solution measured after different incubation time [3, 6] [µg/mL]","Concentration of the target in the solution measured after different incubation time [3, 7] [µg/mL]","Concentration of the target in the solution measured after different incubation time [3, 8] [µg/mL]","Concentration of the target in the solution measured after different incubation time [3, 9] [µg/mL]","Concentration of the target in the solution measured after different incubation time [3, 10] [µg/mL]","Concentration of the target in the solution measured after different incubation time [3, 11] [µg/mL]","Concentration of the target in the solution measured after different incubation time [3, 12] [µg/mL]","Concentration of the target in the solution measured after different incubation time [3, 13] [µg/mL]","Concentration of the target in the solution measured after different incubation time [3, 14] [µg/mL]","Concentration of the target in the solution measured after different incubation time [3, 15] [µg/mL]","Concentration of the target in the solution measured after different incubation time [3, 16] [µg/mL]","Concentration of the target in the solution measured after different incubation time [3, 17] [µg/mL]","Concentration of the target in the solution measured after different incubation time [3, 18] [µg/mL]","Concentration of the target in the solution measured after different incubation time [3, 19] [µg/mL]",further results
"CC1=C(/C=C/C(C)=C/C=C/C(C)=C/CO)C(C)(C)CCC1 [Vitamin A, vitamin A]",57.2,51.1,53.0,4.69,80.5,80.2,75.7,–,–,–,–,–,–,–,–,–,–,–,–,–,–
"CC(C)OC(=O)CCC/C=C\C[C@@H]1[C@@H](/C=C/C(F)(F)COc2ccccc2)[C@H](O)C[C@@H]1O [Tafluprost, tafluprost]",–,–,–,4.25,52.9,66.1,67.3,57.6,44.8,23.1,14.6,23.1,27.4,34.5,36.8,35.2,–,–,–,–,"Concentration of guest molecule measured after different incubated time ([1]; 0.5 h, pH 7.4 phosphate buffer): 18.6 µg/mL; Concentration of guest molecule measured after different incubated time ([1]; 3 h, pH 7.4 phosphate buffer): 9.3 µg/mL; Concentration of guest molecule measured after different incubated time ([1]; 6 h, pH 7.4 phosphate buffer): 6.8 µg/mL; Log P ([2]; prost derivatives, Table 31 (relevant information)): Log P:4.29 D-H: 2 R-H:4; Concentration of the target in the solution measured after different incubation time ([3]; binary system with 0.5% polymer 104, incubation 0.5 h): 26.7 µg/mL; Concentration of the target in the solution measured after different incubation time ([3]; binary system with 0.5% polymer 104, incubation 3 h): 24.2 µg/mL; Concentration of the target in the solution measured after different incubation time ([3]; binary system with 0.5% polymer 104, incubation 6 h): 17.3 µg/mL; Concentration of guest molecule in solution ([3]; binary: 0.25% 102H, 6 h): 67.3 µg/mL"
"CCc1cc2c(cc1N1CCC(N3CCOCC3)CC1)C(C)(C)c1[nH]c3cc(C#N)ccc3c1C2=O [Alectinib, alectinib]",2.5,10.2,2.2,4.75,51.5,47.5,45.9,45.8,31.0,9.4,1.0,0.9,1.3,1.5,0.8,2.9,1.4,2.1,1.9,1.9,"Concentration of the target in the solution measured after different incubation time [3, 20]: 1.6 µg/mL; Concentration of the target in the solution measured after different incubation time [3, 21]: 1.3 µg/mL"
"CCOc1nc2cccc(C(=O)OC(C)OC(=O)OC3CCCCC3)c2n1Cc1ccc(-c2ccccc2-c2nnn[nH]2)cc1 (stereo not shown) [Candesartan Cilexetil, candesartan cilexetil]",–,–,–,5.31,47.0,43.8,4.9,135.3,34.5,18.4,91.6,110.5,120.7,189.1,33.7,28.8,103.1,16.2,18.8,4.7,"Concentration of guest molecule measured after different incubated time ([1]; 0.5 h, pH 4.5 acetate buffer): 3.8 µg/mL; Concentration of guest molecule measured after different incubated time ([1]; 3 h, pH 4.5 acetate buffer): 2.1 µg/mL; Concentration of guest molecule measured after different incubated time ([1]; 6 h, pH 4.5 acetate buffer): 2.0 µg/mL; Concentration of the target in the solution measured after different incubation time [3, 20]: 18.3 µg/mL; Concentration of the target in the solution measured after different incubation time [3, 21]: 3.3 µg/mL"
"O=C(O)[C@H]1O[C@@H](Oc2cc3oc(-c4ccc(O)cc4)cc(=O)c3c(O)c2O)[C@H](O)[C@@H](O)[C@@H]1O [Scutellarin, scutellarin]",45.3,41.7,43.1,0.80,122.5,102.0,102.2,210.4,125.2,110.2,40.4,42.8,42.8,61.7,41.7,43.1,57.4,60.8,54.3,95.9,"Concentration of the target in the solution measured after different incubation time [3, 20]: 87.3 µg/mL; Concentration of the target in the solution measured after different incubation time [3, 21]: 78.3 µg/mL"
